# Experiments:
# PDE10A = test system: PDE10A; parameters: method as in ChEMBL; settings: negative logarithm of the Molar value; ref ChEMBL; cited from earlier work
# all SLCs = assay: Selectivity entropy score against all SLCs (S_SLCs); parameters: species or system human; settings: selectivity entropy score for all activity values against SLCs
# Procedure: (§1) To assess the selectivity, a selectivity entropy score ([Uitdehaag and Zaman, 2011]) was implemented in KNIME. The entropy score was calculated twice for each compound, first against all SLCs (S_SLCs) and then against all proteins (S_other). Ideally, a low entropy value indicates a high selectivity of the inhibitor. However, as the inhibitors were not tested on a full panel of targets, but often only against one to three proteins, a low entropy value might not reflect its true selectivity. Therefore, Pareto ranking was performed using the corresponding node from the Erlwood KNIME open-source cheminformatics KNIME community extension. This ranking minimizes S_SLCs and S_other while maximizing the activity value and the count of SLCs the inhibitor was tested on.
# PDE5A = test system: PDE5A; parameters: method as in ChEMBL; settings: negative logarithm of the Molar value; ref ChEMBL; cited from earlier work
# [1] = test system: all proteins (SLCs and non-SLCs); assay: Selectivity entropy score against all proteins (S_other); parameters: species or system human
# Procedure: as §1
# PDE1C = test system: PDE1C; parameters: method as in ChEMBL; settings: negative logarithm of the Molar value; ref ChEMBL; cited from earlier work
# MPC2 = test system: MPC2; parameters: method as in GtoPdb 3023, PubMed 35278701; settings: negative logarithm of the Molar value of IC50, Ki, EC50, and Kd values; ref GtoPdb 3023, PubMed 35278701; cited from earlier work
# GPR35 = test system: GPR35; parameters: method as in ChEMBL; settings: negative logarithm of the Molar value; ref ChEMBL; cited from earlier work
# SLC2A9 = SLC2A9 (Homo sapiens, UniProt Q9NRM0); assay: Membrane potential dye-based assay, HEK293 cells stably expressing isoform-1 or -2 of SLC2A9 vs mock; type: cell-based; settings: SLC2A9 isoform-1 or -2 cells compared with non-transduced (mock) cells
# Procedure: FLIPR Membrane Potential Blue Dye was used to detect the compound activities for those membrane transporters that are electrogenic or whose activity is associated with changes in membrane potential, as previously described ([Jensen and BräunerOsborne, 2004]). In brief, cells are seeded at cell line-specific density in black clear-bottom poly-D-Lysine-coated 384-well plates (Greiner Bio-One) in DMEM high-glucose medium with 10% FBS, 1% P/S, and 2 mM UltraGlutamine I (25 µL/well). Furthermore, 24 h after seeding, the culture medium is removed, and the cells are loaded with 20 µL/well of 0.5 X FMP Blue Dye in assay buffer (modified Tyrode’s buffer, 130 mM NaCl, 5 mM KCl, 1 mM MgCl2, 2 mM CaCl2, 5 mM NaHCO3, and 20 mM HEPES pH 7.4). The plates are subsequently incubated for at least 30 min at room temperature in the dark. Then, 10 µL/well of test compounds and controls is added at defined concentrations (0.5% DMSO final conc.) in the FLIPR TETRA instrument (Molecular Devices), and emitted fluorescence is recorded using a λexc 510–545-nm/λem 565–625-nm filter. The dose–response curves for the 19 compounds were prepared starting from 3 µM (final top concentration), the half-log serial dilution factor. For data analysis, Genedata Screener 19.0 software was used.
# SLC1A5 = target: T1, SLC1A5 (Homo sapiens, UniProt Q15758); assay: AspSnFR biosensor assay, asparagine uptake in HEK293 cells; type: cell-based; settings: cells pretreated with 50 µM
# T1 construct: host or cells: HEK293 expressing AspSnFR, transiently transfected with gpASNase1
# Procedure: HEK293 cells expressing AspSnFR were transiently transfected with EBPF-gpASNase1, trypsinized, and resuspended in 10% dialyzed FCS/PBS. Post-treatment with test compounds or vehicle, varying concentrations of asparagine were added. After a 30-min incubation at room temperature, flow cytometry analysis was performed using the BD LSR Fortessa X-20, following the protocol previously described ([Hellweg et al., 2024]).
# SLC28A2 (CNT2) = assay: Impedance-based TRACT assay, HEK293–JumpIn–SLC28A2 cells, adenosine response; type: cell-based, human; settings: 31.6 µM pretreatment, non-induced (-dox) cells
# ENT1 (SLC29A1) = target: T2, ENT1 (SLC29A1) (Homo sapiens, UniProt Q99808); assay: Displacement assay with [3H]NBTI on human erythrocyte membranes; type: binding; settings: [3H]NBTI displacement on erythrocyte membranes and TRACT assay (Figure 1E, Supplementary Figure S1)
# T2 construct: from tissue; host or cells: human erythrocyte membranes
# Procedure: Displacement assay with [3H]NBTI on human erythrocyte membranes expressing ENT1 (SLC29A1) was performed at 25°C, as described previously ([Vlachodimou et al., 2020]).
# T2 sequence (Q99808 whole entry): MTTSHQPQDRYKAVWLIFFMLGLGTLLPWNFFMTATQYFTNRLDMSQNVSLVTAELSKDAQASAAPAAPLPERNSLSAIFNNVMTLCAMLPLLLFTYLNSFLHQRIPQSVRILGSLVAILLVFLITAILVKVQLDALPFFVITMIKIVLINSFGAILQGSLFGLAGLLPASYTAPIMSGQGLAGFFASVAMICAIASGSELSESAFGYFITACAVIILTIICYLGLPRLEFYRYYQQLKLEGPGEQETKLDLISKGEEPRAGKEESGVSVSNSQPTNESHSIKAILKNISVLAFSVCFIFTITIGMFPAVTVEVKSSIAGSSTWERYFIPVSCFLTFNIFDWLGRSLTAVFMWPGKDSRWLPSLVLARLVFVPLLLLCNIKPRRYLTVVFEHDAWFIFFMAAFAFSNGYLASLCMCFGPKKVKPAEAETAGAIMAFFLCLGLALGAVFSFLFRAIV
# Chain of SLC2A9 (Q9NRM0 51-540 limits assumed): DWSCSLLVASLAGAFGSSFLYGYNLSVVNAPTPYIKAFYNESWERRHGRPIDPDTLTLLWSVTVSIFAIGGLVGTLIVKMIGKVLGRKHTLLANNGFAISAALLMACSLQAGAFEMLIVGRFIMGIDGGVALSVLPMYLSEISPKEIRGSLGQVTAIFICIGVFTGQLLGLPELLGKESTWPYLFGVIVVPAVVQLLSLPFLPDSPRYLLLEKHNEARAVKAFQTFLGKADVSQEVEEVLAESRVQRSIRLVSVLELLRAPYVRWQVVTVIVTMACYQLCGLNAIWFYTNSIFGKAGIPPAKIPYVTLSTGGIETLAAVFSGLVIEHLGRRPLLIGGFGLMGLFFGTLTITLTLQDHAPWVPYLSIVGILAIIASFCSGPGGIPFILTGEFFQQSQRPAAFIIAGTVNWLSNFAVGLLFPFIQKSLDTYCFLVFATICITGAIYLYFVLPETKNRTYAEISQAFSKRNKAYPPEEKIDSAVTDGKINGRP
# T1 sequence (Q15758 whole entry): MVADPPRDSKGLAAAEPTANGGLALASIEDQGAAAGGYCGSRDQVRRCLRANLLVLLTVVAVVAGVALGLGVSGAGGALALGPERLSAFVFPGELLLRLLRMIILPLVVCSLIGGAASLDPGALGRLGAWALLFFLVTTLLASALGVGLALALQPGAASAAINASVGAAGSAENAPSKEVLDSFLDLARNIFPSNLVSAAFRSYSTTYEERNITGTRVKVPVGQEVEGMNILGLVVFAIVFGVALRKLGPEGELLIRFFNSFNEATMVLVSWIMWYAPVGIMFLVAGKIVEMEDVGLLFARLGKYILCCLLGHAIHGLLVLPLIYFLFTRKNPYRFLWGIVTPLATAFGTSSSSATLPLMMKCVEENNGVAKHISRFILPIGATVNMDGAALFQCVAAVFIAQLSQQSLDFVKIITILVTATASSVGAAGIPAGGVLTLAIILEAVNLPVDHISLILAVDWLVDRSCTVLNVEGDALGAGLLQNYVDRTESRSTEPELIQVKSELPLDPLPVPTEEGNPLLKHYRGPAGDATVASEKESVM
smiles,measurement,setting,value
CCCOc1ccccc1-c1nc2nn[nH]c2c(=O)[nH]1 [zaprinast],other_targets_act (PDE10A),PDE10A,4.66
same,S_SLCs,all SLCs,0
same,other_targets_act (PDE5A),PDE5A,5.95
same,S_other,[1],1.11
same,other_targets_act (PDE1C),PDE1C,4.89
same,primary_SLC_act (MPC2),MPC2,6.52
same,other_targets_act (GPR35),GPR35,5.71
CCc1oc2ccccc2c1C(=O)c1cc(Br)c(O)c(Br)c1 [Benzbromarone],effect in SLC2A9 membrane potential dye assay vs mock cells,SLC2A9,unspecific SLC2A9-independent effect
Cc1cccc(COc2ccccc2CN(CC[C@H](N)C(=O)O)Cc2ccccc2OCc2cccc(C)c2)c1 [V-9302],effect in SLC1A5 asparagine uptake assay,SLC1A5,no effect
Nc1ncnc2c1nc(NCc1ccc(-c3ccccc3)cc1)n2[C@@H]1O[C@H](CO)[C@@H](O)[C@H]1O [CNT2 inhibitor 1],selectivity for SLC28A2 in the TRACT assay,SLC28A2 (CNT2),not selective
same,inhibition of SLC29A1,ENT1 (SLC29A1),also inhibited SLC29A1
O=C1CN(/N=C/c2ccc([N+](=O)[O-])o2)C(=O)N1 [nitrofurantoin],S_SLCs,all SLCs,0
same,S_other,[1],0
same,primary_SLC_act (MPC2),MPC2,5.48

# — paper PMC11267547, “Advancing drug discovery through assay development: a survey of tool compounds within the human solute carrier superfamily” (Frontiers in Pharmacology, 2024)
